Data on 21 compounds can be found in ChEMBL document CHEMBL1138103, “Synthesis and antibacterial activity of new fluoroquinolones containing a substituted N-(phenethyl)piperazine moiety” (2006).

What all share (type): functional
In experiment [1] the test system is Klebsiella pneumoniae. Nature of the experiment: microbe, parasite or virus in culture. Particulars: ATCC 10031.
Description: Antibacterial activity against Klebsiella pneumoniae ATCC 10031 by agar-dilution method
Experiment [2] concerns Staphylococcus aureus. Description: microbe, parasite or virus in culture. The conditions noted are these: ATCC 6538P.
Description: Antibacterial activity against Staphylococcus aureus ATCC 6538p by agar-dilution method
Experiment [3] has as its system Staphylococcus epidermidis. Description: microbe, parasite or virus in culture. Particulars: ATCC 12228.
Description: Antibacterial activity against Staphylococcus epidermidis ATCC 12228 by agar-dilution method
For experiment [4], the system named is Pseudomonas aeruginosa. Description: microbe, parasite or virus in culture. The conditions noted are these: ATCC 9027.
Description: Antibacterial activity against Pseudomonas aeruginosa ATCC 9027 by agar-dilution method
Experiment [5] relates to Escherichia coli. Nature of the experiment: microbe, parasite or virus in culture. Particulars: ATCC 8739.
Description: Antibacterial activity against Escherichia coli ATCC 8739 by agar-dilution method
Experiment [6] relates to Bacillus subtilis. Description: microbe, parasite or virus in culture. The conditions noted are these: ATCC 6633.
Description: Antibacterial activity against Bacillus subtilis ATCC 6633 by agar-dilution method
Experiment [7] concerns Staphylococcus aureus. Description: Antibacterial activity against methicillin-resistant Staphylococcus aureus 1 by agar-dilution method.
The test system of experiment [8] is Staphylococcus aureus. Description: Antibacterial activity against methicillin-resistant Staphylococcus aureus 2 by agar-dilution method.

Molecules are shown by their SMILES. In brackets after ≈: the same amount, converted by molar mass.

Regarding `O=C(CN1CCN(c2cc3c(cc2F)c(=O)c(C(=O)O)cn3C2CC2)CC1)c1ccc(Cl)cc1`, the MIC worked out at 0.013 mg/L (≈ 0.0269 µM) in experiment [1]; 0.39 mg/L (≈ 0.806 µM) in experiment [2]; 0.195 mg/L (≈ 0.403 µM) in experiment [3]; 1.56 mg/L (≈ 3.22 µM) in experiment [4]; 0.025 mg/L (≈ 0.0517 µM) in experiment [5]; 0.049 mg/L (≈ 0.101 µM) in experiment [6]. In addition, the MIC in experiment [7] and in experiment [8] was 0.39 mg/L (≈ 0.806 µM) throughout.
On to `CCn1cc(C(=O)O)c(=O)c2cc(F)c(N3CCN(C/C(=N\OC)c4ccc(F)cc4)CC3)nc21`, for which the MIC was 1.56 mg/L (≈ 3.21 µM) in experiment [1]; 12.5 mg/L (≈ 25.7 µM) in experiment [2]; 6.25 mg/L (≈ 12.9 µM) in experiment [3]; 100 mg/L (≈ 206 µM) in experiment [4]; 6.25 mg/L (≈ 12.9 µM) in experiment [5]; 6.25 mg/L (≈ 12.9 µM) in experiment [6].
In the case of `CCn1cc(C(=O)O)c(=O)c2cc(F)c(N3CCN(C/C(=N\OC)c4ccccc4)CC3)nc21`, the MIC is 12.5 mg/L (≈ 26.7 µM) in experiment [1]; 25 mg/L (≈ 53.5 µM) in experiment [2]; 25 mg/L (≈ 53.5 µM) in experiment [3]; more than 100 mg/L in experiment [4]; 12.5 mg/L (≈ 26.7 µM) in experiment [5]; 12.5 mg/L (≈ 26.7 µM) in experiment [6].
Take `CCn1cc(C(=O)O)c(=O)c2cc(F)c(N3CCN(C/C(=N\OC)c4ccc(Cl)cc4Cl)CC3)nc21`: the MIC in experiment [1] came to 6.25 mg/L (≈ 11.7 µM); in experiment [2] it was 25 mg/L (≈ 46.6 µM); in experiment [3] it was 25 mg/L (≈ 46.6 µM); in experiment [4] it was 50 mg/L (≈ 93.2 µM); in experiment [5], 12.5 mg/L (≈ 23.3 µM); in experiment [6], 12.5 mg/L (≈ 23.3 µM).
In the case of `CCn1cc(C(=O)O)c(=O)c2cc(F)c(N3CCN(C/C(=N\OC)c4ccccc4)CC3)cc21`, the MIC in experiment [1] was 12.5 mg/L (≈ 26.8 µM); in experiment [2], 25 mg/L (≈ 53.6 µM); in experiment [3] it was 25 mg/L (≈ 53.6 µM); in experiment [4], more than 100 mg/L; in experiment [5] it was 12.5 mg/L (≈ 26.8 µM); in experiment [6], 6.25 mg/L (≈ 13.4 µM).
In the case of `CCn1cc(C(=O)O)c(=O)c2cc(F)c(N3CCN(C/C(=N\OC)c4ccc(F)cc4F)CC3)nc21`, the MIC in experiment [1] is 25 mg/L (≈ 49.7 µM); in experiment [2], 25 mg/L (≈ 49.7 µM); in experiment [3] it was 25 mg/L (≈ 49.7 µM); in experiment [4] it was more than 100 mg/L; in experiment [5] it was 50 mg/L (≈ 99.3 µM); in experiment [6] it was 1.56 mg/L (≈ 3.1 µM).
In the case of `O=C(CN1CCN(c2cc3c(cc2F)c(=O)c(C(=O)O)cn3C2CC2)CC1)c1ccccc1Cl`, the MIC in experiment [1] was 0.025 mg/L (≈ 0.0517 µM); in experiment [2], 0.39 mg/L (≈ 0.806 µM); in experiment [3], 0.195 mg/L (≈ 0.403 µM); in experiment [4], 6.25 mg/L (≈ 12.9 µM); in experiment [5], 0.098 mg/L (≈ 0.203 µM); in experiment [6], 0.049 mg/L (≈ 0.101 µM). The MIC in experiment [7] and in experiment [8] was 0.39 mg/L (≈ 0.806 µM) each time.
As for `CCn1cc(C(=O)O)c(=O)c2cc(F)c(N3CCN(C/C(=N\OC)c4ccc(F)cc4F)CC3)cc21`, the MIC in experiment [1] is 12.5 mg/L (≈ 24.9 µM); in experiment [2], 12.5 mg/L (≈ 24.9 µM); in experiment [3], 12.5 mg/L (≈ 24.9 µM); in experiment [4] it was more than 100 mg/L; in experiment [5], 25 mg/L (≈ 49.8 µM); in experiment [6] it was 1.56 mg/L (≈ 3.1 µM).
As for `CCn1cc(C(=O)O)c(=O)c2cc(F)c(N3CCN(C/C(=N\OC)c4ccc(F)cc4)CC3)cc21`, the MIC in experiment [1] came out at 0.78 mg/L (≈ 1.61 µM); in experiment [2] it was 6.25 mg/L (≈ 12.9 µM); in experiment [3], 1.56 mg/L (≈ 3.22 µM); in experiment [4] it was 100 mg/L (≈ 206 µM); in experiment [5], 3.13 mg/L (≈ 6.46 µM); in experiment [6], 3.13 mg/L (≈ 6.46 µM).
`O=C(O)c1cn(C2CC2)c2cc(N3CCN(C/C(=N\O)c4ccc(Cl)cc4)CC3)c(F)cc2c1=O`: the MIC in experiment [1] was 0.049 mg/L (≈ 0.0982 µM); in experiment [2], 0.39 mg/L (≈ 0.782 µM); in experiment [3] it was 0.195 mg/L (≈ 0.391 µM); in experiment [4], 100 mg/L (≈ 200 µM); in experiment [5], 0.78 mg/L (≈ 1.56 µM); in experiment [6], 0.78 mg/L (≈ 1.56 µM). For the same compound, the MIC in experiment [7] worked out at 0.195 mg/L (≈ 0.391 µM); in experiment [8], 0.098 mg/L (≈ 0.196 µM).
`CCn1cc(C(=O)O)c(=O)c2cc(F)c(N3CCN(C/C(=N\OC)c4ccc(Cl)cc4Cl)CC3)cc21`: the MIC in experiment [1] was 6.25 mg/L (≈ 11.7 µM); in experiment [2], 12.5 mg/L (≈ 23.3 µM); in experiment [3], 12.5 mg/L (≈ 23.3 µM); in experiment [4] it was more than 100 mg/L; in experiment [5] it was 12.5 mg/L (≈ 23.3 µM); in experiment [6], 12.5 mg/L (≈ 23.3 µM).
As to `CO/N=C(\CN1CCN(c2cc3c(cc2F)c(=O)c(C(=O)O)cn3C2CC2)CC1)c1ccc(Cl)cc1Cl`, the MIC in experiment [1] was 0.012 mg/L (≈ 0.0219 µM); in experiment [2] it was 0.39 mg/L (≈ 0.712 µM); in experiment [3], 0.39 mg/L (≈ 0.712 µM); in experiment [4], 1.56 mg/L (≈ 2.85 µM); in experiment [5], 0.025 mg/L (≈ 0.0457 µM); in experiment [6], 0.025 mg/L (≈ 0.0457 µM). Further, the MIC in experiment [7] and in experiment [8] was 0.39 mg/L (≈ 0.712 µM) each time.
Take `CO/N=C(\CN1CCN(c2cc3c(cc2F)c(=O)c(C(=O)O)cn3C2CC2)CC1)c1ccc(F)cc1F`: the MIC in experiment [1] was found to be 0.78 mg/L (≈ 1.52 µM); in experiment [2], 6.25 mg/L (≈ 12.1 µM); in experiment [3], 6.25 mg/L (≈ 12.1 µM); in experiment [4] it was 12.5 mg/L (≈ 24.3 µM); in experiment [5], 1.56 mg/L (≈ 3.03 µM); in experiment [6] it was 0.78 mg/L (≈ 1.52 µM).
For `CO/N=C(\CN1CCN(c2cc3c(cc2F)c(=O)c(C(=O)O)cn3C2CC2)CC1)c1ccc(F)cc1`, the MIC is 3.13 mg/L (≈ 6.3 µM) in experiment [1]; 6.25 mg/L (≈ 12.6 µM) in experiment [2]; 6.25 mg/L (≈ 12.6 µM) in experiment [3]; 50 mg/L (≈ 101 µM) in experiment [4]; 3.13 mg/L (≈ 6.3 µM) in experiment [5]; 6.25 mg/L (≈ 12.6 µM) in experiment [6].
As for `CO/N=C(\CN1CCN(c2cc3c(cc2F)c(=O)c(C(=O)O)cn3C2CC2)CC1)c1ccccc1`, the MIC in experiment [1] was 3.13 mg/L (≈ 6.54 µM); in experiment [2], 12.5 mg/L (≈ 26.1 µM); in experiment [3] it was 12.5 mg/L (≈ 26.1 µM); in experiment [4], 100 mg/L (≈ 209 µM); in experiment [5], 6.25 mg/L (≈ 13.1 µM); in experiment [6], 6.25 mg/L (≈ 13.1 µM).
As to `CO/N=C(\CN1CCN(c2cc3c(cc2F)c(=O)c(C(=O)O)cn3C2CC2)CC1)c1ccccc1Cl`, the MIC amounted to 0.013 mg/L (≈ 0.0253 µM) in experiment [1]; 0.39 mg/L (≈ 0.76 µM) in experiment [2]; 0.195 mg/L (≈ 0.38 µM) in experiment [3]; 6.25 mg/L (≈ 12.2 µM) in experiment [4]; 0.025 mg/L (≈ 0.0487 µM) in experiment [5]; 0.049 mg/L (≈ 0.0955 µM) in experiment [6]. For the same compound, the MIC in experiment [7] and in experiment [8] was 0.39 mg/L (≈ 0.76 µM) in each case.
For `CO/N=C(\CN1CCN(c2cc3c(cc2F)c(=O)c(C(=O)O)cn3C2CC2)CC1)c1ccc(Cl)cc1`, the MIC was 0.78 mg/L (≈ 1.52 µM) in experiment [1]; 0.78 mg/L (≈ 1.52 µM) in experiment [2]; 0.39 mg/L (≈ 0.76 µM) in experiment [3]; more than 100 mg/L in experiment [4]; 1.56 mg/L (≈ 3.04 µM) in experiment [5]; 1.56 mg/L (≈ 3.04 µM) in experiment [6]. The MIC in experiment [7] and in experiment [8] was 0.39 mg/L (≈ 0.76 µM) throughout.
`O=C(O)c1cn(C2CC2)c2cc(N3CCN(C/C(=N\O)c4ccccc4Cl)CC3)c(F)cc2c1=O`: the MIC in experiment [1] stood at 0.025 mg/L (≈ 0.0501 µM); in experiment [2] it was 0.39 mg/L (≈ 0.782 µM); in experiment [3], 0.195 mg/L (≈ 0.391 µM); in experiment [4], 25 mg/L (≈ 50.1 µM); in experiment [5], 0.78 mg/L (≈ 1.56 µM); in experiment [6], 0.78 mg/L (≈ 1.56 µM). For the same compound, the MIC in experiment [7] and in experiment [8] was 0.39 mg/L (≈ 0.782 µM) throughout.
As for `O=C(O)c1cn(C2CC2)c2cc(N3CCNCC3)c(F)cc2c1=O` [CIPROFLOXACIN], the MIC in experiment [1] came out at 0.025 mg/L (≈ 0.0754 µM); in experiment [2], 0.39 mg/L (≈ 1.18 µM); in experiment [3], 0.39 mg/L (≈ 1.18 µM); in experiment [4] it was 0.78 mg/L (≈ 2.35 µM); in experiment [5], 0.025 mg/L (≈ 0.0754 µM); in experiment [6], 0.025 mg/L (≈ 0.0754 µM). For the same compound, the MIC in experiment [7] and in experiment [8] was 0.39 mg/L (≈ 1.18 µM) each time.
Take `CCn1cc(C(=O)O)c(=O)c2cc(F)c(N3CCNCC3)nc21` [ENOXACIN]: the MIC turned out to be 0.098 mg/L (≈ 0.306 µM) in experiment [1]; 1.56 mg/L (≈ 4.87 µM) in experiment [2]; 0.78 mg/L (≈ 2.44 µM) in experiment [3]; 6.25 mg/L (≈ 19.5 µM) in experiment [4]; 0.098 mg/L (≈ 0.306 µM) in experiment [5]; 0.098 mg/L (≈ 0.306 µM) in experiment [6].
`CCn1cc(C(=O)O)c(=O)c2cc(F)c(N3CCNCC3)cc21` [NORFLOXACIN]: the MIC came to 0.049 mg/L (≈ 0.153 µM) in experiment [1]; 0.78 mg/L (≈ 2.44 µM) in experiment [2]; 0.78 mg/L (≈ 2.44 µM) in experiment [3]; 3.13 mg/L (≈ 9.8 µM) in experiment [4]; 0.049 mg/L (≈ 0.153 µM) in experiment [5]; 0.049 mg/L (≈ 0.153 µM) in experiment [6]. In addition, the MIC in experiment [7] and in experiment [8] was 0.78 mg/L (≈ 2.44 µM) in each case.
